This note sets out measurements from publication PMC12775434, “Ultra-large virtual screening unveils potent agonists of the neuromodulatory orphan receptor GPR139” (Nature Communications, 2025).

Holding throughout (format): cell-based
Experiment [1] has as its target T1, human muscarinic acetylcholine M1 receptor (M1R) (Homo sapiens, UniProt P11229).
T1 sequence (P11229 1-460): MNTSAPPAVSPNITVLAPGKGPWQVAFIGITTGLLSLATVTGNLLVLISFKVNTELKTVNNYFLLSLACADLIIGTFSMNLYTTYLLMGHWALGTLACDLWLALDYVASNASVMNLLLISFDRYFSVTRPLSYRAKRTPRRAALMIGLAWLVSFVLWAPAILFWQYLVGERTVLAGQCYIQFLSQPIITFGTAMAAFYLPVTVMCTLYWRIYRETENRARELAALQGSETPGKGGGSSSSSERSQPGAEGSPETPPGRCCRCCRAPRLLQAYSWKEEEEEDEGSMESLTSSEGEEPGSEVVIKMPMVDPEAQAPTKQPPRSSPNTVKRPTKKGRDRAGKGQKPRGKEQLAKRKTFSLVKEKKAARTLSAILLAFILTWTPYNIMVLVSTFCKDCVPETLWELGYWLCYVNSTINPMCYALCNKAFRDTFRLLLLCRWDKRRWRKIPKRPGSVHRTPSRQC
Put plainly: Ca2+ mobilization counter-screen in M1R-CHOk1 cells. Conditions: individual replicates (Supplementary Figure 5). The procedure, abridged:
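Intracellular calcium is tracked by Fluo-4 fluorescence at 37 °C in M1R-CHOk1 cells, with compounds dispensed automatically once baseline is taken. Buffer is HBSS with 20 mM HEPES, pH 7.4, plus 2.5 mM probenecid.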
In general terms: Calcium assays in cells follow changes in intracellular calcium, usually with a dye or a luminescent sensor.

For experiment [2], the target named is T2, GPR139 (Homo sapiens, UniProt Q6DWJ6).
T2 sequence (Q6DWJ6 1-353): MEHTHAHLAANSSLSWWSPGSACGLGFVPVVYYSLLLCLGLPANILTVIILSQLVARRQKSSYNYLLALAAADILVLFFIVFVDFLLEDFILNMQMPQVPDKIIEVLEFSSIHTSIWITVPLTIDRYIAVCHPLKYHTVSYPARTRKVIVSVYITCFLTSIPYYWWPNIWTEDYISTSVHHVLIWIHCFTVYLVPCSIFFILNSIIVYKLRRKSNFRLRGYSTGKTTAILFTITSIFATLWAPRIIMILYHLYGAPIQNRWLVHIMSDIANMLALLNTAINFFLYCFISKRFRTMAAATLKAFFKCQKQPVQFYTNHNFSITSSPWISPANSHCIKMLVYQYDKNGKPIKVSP
Kind of experiment: Ca2+ mobilization assay, agonist mode, stable GPR139-CHOk1 cell line. The conditions noted are these: for EC50 / Emax: Supplementary Table 2, mean ± SEM; for EC50: read-out: pEC50 Ca2+ (converted); for Emax: normalized to Lundbeck Cmp 1a, read-out: Emax (%) Ca2+. The gist of the method:
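Agonist activity of compounds is assessed in stably transfected CHO-K1 cells using the calcium dye Fluo-4 at 37 °C in HEPES-buffered HBSS (pH 7.4). Efficacy is expressed relative to the reference agonist Lundbeck Cmp 1a, set as 100%.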

For experiment [3], the target named is T2, GPR139. Put plainly: Ca2+ mobilization assay, antagonist mode (EC80 800 nM Lundbeck Cmp 1a after 20 min preincubation), GPR139-CHOk1. Conditions: individual replicates (Supplementary Figure 4). The gist of the method:
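Fluo-4-loaded GPR139-CHOk1 cells in HEPES-buffered HBSS (pH 7.4, 2.5 mM probenecid) given test compounds at 10 µM, then after 20 min challenged with 800 nM Lundbeck Cmp 1a (EC80). Calcium fluorescence read at 37 °C, 485/525 nm.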

Where [4] appears, read: Agonist mode, individual replicates (Supplementary Figure 4).
The mark [5] stands for this setting: log [Compound] M = -4.5, individual replicate columns.
[6] abbreviates: log [Compound] M = -5.0, individual replicate columns.
[7] abbreviates: log [Compound] M = -5.5, individual replicate columns.
The mark [8] stands for this setting: log [Compound] M = -6.0, individual replicate columns.
Where [9] appears, read: log [Compound] M = -6.5, individual replicate columns.
The mark [10] stands for this setting: log [Compound] M = -7.0, individual replicate columns.
Where [11] appears, read: log [Compound] M = -7.5, individual replicate columns.
[12] abbreviates: log [Compound] M = -8.0, individual replicate columns.
The mark [13] stands for this setting: log [Compound] M = -8.5, individual replicate columns.
The mark [14] stands for this setting: log [Compound] M = -9.0, individual replicate columns.

What is called Emax is the maximal effect, on the per cent scale that the assay sets.

Several values for one entry are separate records, joined by “and”; a condition that tells them apart may be missing. Equal entries are not always repeated.

In the case of `Cc1cc(-c2nc(CC(=O)NC(C)c3ccccc3)no2)no1` (stereo not shown) [Compound 1.23, CC(C1=CC=CC=C1)NC(CC2=NOC(C3=NOC(C)=C3)=N2)=O], the “Ca2+ signal (% of Carbachol)” value in experiment [1] is -3 % of Carbachol and 4.36 % of Carbachol and 7 % of Carbachol. Moreover, the “Ca2+ signal (% of Cmp 1a)” value was 72 % of Cmp 1a and 57 % of Cmp 1a and 85 % of Cmp 1a on GPR139 [2] (setting [4]); 95 % of Cmp 1a and 102 % of Cmp 1a and 98 % of Cmp 1a and 93 % of Cmp 1a on GPR139 [2] (setting [5]); 96 % of Cmp 1a and 81 % of Cmp 1a and 85 % of Cmp 1a and 77 % of Cmp 1a on GPR139 [2] (setting [6]); 80 % of Cmp 1a and 55 % of Cmp 1a and 48 % of Cmp 1a and 70 % of Cmp 1a at GPR139 [2] (setting [7]); 56 % of Cmp 1a and 30 % of Cmp 1a and 19 % of Cmp 1a and 38 % of Cmp 1a at GPR139 [2] (setting [8]); 38 % of Cmp 1a and 9 % of Cmp 1a and -1 % of Cmp 1a and 11 % of Cmp 1a on GPR139 [2] (setting [9]). Besides, the “Ca2+ signal (% of Cmp 1a)” value on GPR139 [2] (setting [10]) is 18 % of Cmp 1a and 5.7 % of Cmp 1a and 1.07 % of Cmp 1a and 6 % of Cmp 1a; on GPR139 [2] (setting [11]) it was 12 % of Cmp 1a (2×) and 15 % of Cmp 1a and 0.388 % of Cmp 1a; on GPR139 [2] (setting [12]) it was -3 % of Cmp 1a and 11 % of Cmp 1a and 10 % of Cmp 1a and 0.199 % of Cmp 1a; at GPR139 [2] (setting [13]), -4.71 % of Cmp 1a and 7 % of Cmp 1a and 14 % of Cmp 1a and -1.47 % of Cmp 1a; at GPR139 [2] (setting [14]), 4 % of Cmp 1a and 6.41 % of Cmp 1a and 7 % of Cmp 1a and -2.26 % of Cmp 1a; at GPR139 [3], 15 % of Cmp 1a and 20 % of Cmp 1a and 10 % of Cmp 1a. The EC50 at GPR139 [2] was 1580 nM. Further, the Emax on GPR139 [2] was determined as 95 ± 3%.
As for `Cc1cncc(-c2nc(CC(=O)NC(C)c3ccccc3)no2)c1` (stereo not shown) [Compound 1.24, CC(C1=CC=CC=C1)NC(CC2=NOC(C3=CC(C)=CN=C3)=N2)=O], in experiment [1], the “Ca2+ signal (% of Carbachol)” value is -0.598 % of Carbachol and 5 % of Carbachol and 4.73 % of Carbachol. Also, the “Ca2+ signal (% of Cmp 1a)” value at GPR139 [2] (setting [4]) was 83 % of Cmp 1a and 52 % of Cmp 1a and 78 % of Cmp 1a; at GPR139 [2] (setting [5]), 103 % of Cmp 1a and 95 % of Cmp 1a and 70 % of Cmp 1a and 88 % of Cmp 1a and 90 % of Cmp 1a; on GPR139 [2] (setting [6]), 68 % of Cmp 1a and 86 % of Cmp 1a and 73 % of Cmp 1a and 72 % of Cmp 1a and 97 % of Cmp 1a; at GPR139 [2] (setting [7]) it was 50 % of Cmp 1a and 66 % of Cmp 1a and 58 % of Cmp 1a and 47 % of Cmp 1a and 97 % of Cmp 1a; on GPR139 [2] (setting [8]), 24 % of Cmp 1a and 41 % of Cmp 1a and 39 % of Cmp 1a and 38 % of Cmp 1a and 62 % of Cmp 1a; on GPR139 [2] (setting [9]), 1.31 % of Cmp 1a and 19 % of Cmp 1a and 31 % of Cmp 1a and 8.44 % of Cmp 1a and 34 % of Cmp 1a. The “Ca2+ signal (% of Cmp 1a)” value at GPR139 [2] (setting [10]) is 2.29 % of Cmp 1a and 0.399 % of Cmp 1a and 4 % of Cmp 1a and 2 % of Cmp 1a and 17 % of Cmp 1a; at GPR139 [2] (setting [11]), -0.0494 % of Cmp 1a and 2.8 % of Cmp 1a and -5.43 % of Cmp 1a and 8 % of Cmp 1a and 5.52 % of Cmp 1a; at GPR139 [2] (setting [12]), -0.83 % of Cmp 1a and 7.38 % of Cmp 1a and -0.358 % of Cmp 1a and 15 % of Cmp 1a and 4 % of Cmp 1a; at GPR139 [2] (setting [13]), 3.55 % of Cmp 1a and 3 % of Cmp 1a and -1.51 % of Cmp 1a and 6 % of Cmp 1a and 3.35 % of Cmp 1a; at GPR139 [2] (setting [14]), 2 % of Cmp 1a and 1.41 % of Cmp 1a and 6 % of Cmp 1a and 4 % of Cmp 1a and 3 % of Cmp 1a; at GPR139 [3], 5.33 % of Cmp 1a and 17 % of Cmp 1a and -8 % of Cmp 1a. Besides, the “fold decrease in potency relative to a similar phenyl substituted compound (1.3)” value on GPR139 [2] (Ca2+ mobilization EC50) is recorded as 4- to 16 fold. At GPR139 [2], the EC50 is 1580 nM. Further, on GPR139 [2], the Emax was 91 ± 4%.
